The values that follow come from US11931328B2, “Stabilized formulations of 4-amino-3-substituted butanoic acid derivatives” (AMNEAL PHARMACEUTICALS LLC, priority 2019, dated 2024).

SMILES strings stand for the structures. Entries after “also recorded” stand apart in the source; their conditions may differ. Where two headings read alike, the source gives them in different places.

This data set can be described thus: Accelerated stability studies of API/stabilizer preparations (lactam impurity A by HPLC). Type of data set: physicochemical.

In the case of `CC(C)C[C@H](CN)CC(=O)O` [pregabalin], the “effect of EUDRAGIT E on formation of lactam impurity A” value (shortened to “effect of EUDRAGIT E”) is “destabilization effect”.

As to `NCC(CC(=O)O)c1ccc(Cl)cc1` (stereo not drawn) [baclofen, 4-amino-3-(4-chlorophenyl)butanoic acid], where the note is “with EUDRAGIT E PO 1, 5, 10% (m/m), stored at 60° C. in closed glass vials, HPLC”, the “effect of EUDRAGIT E” value was “stabilized; also recorded: stabilization effect”.

Regarding `NCC1(CC(=O)O)CCCCC1` [gabapentin], the “effect of EUDRAGIT E” value is “destabilization effect”.
